Drawing on ChEMBL document CHEMBL3400096, “6,7-Dihydrobenzo[f]benzo[4,5]imidazo[1,2-d][1,4]oxazepine derivatives as selective inhibitors of PI3Kα” (Bioorg Med Chem, 2015), this text covers IC50 for 28 compounds.

As a reminder, the IC50 is the concentration needed to halve the response being measured.

Test [1] can be described thus: Antiproliferative activity against human HCT116 cells assessed as inhibition of absorbance after 72 hrs by MTT assay. To be noted: HCT-116, 72 h. In kind it is functional, cell-based. On the technique in general: Tetrazolium dyes change colour on reduction, which living cells bring about.
For test [2], the system named is A549. The experiment in a line: Antiproliferative activity against human A549 cells assessed as inhibition of absorbance after 72 hrs by MTT assay. It is filed as functional, cell-based. The following applies: A549, 72 h.
Test [3] is described as follows: Antiproliferative activity against human HuH7 cells assessed as inhibition of absorbance after 72 hrs by MTT assay. In kind it is functional, cell-based. To be noted: Huh-7, 72 h.
The nature of test [4]: Antiproliferative activity against human HL60 cells assessed as inhibition of absorbance after 72 hrs by MTT assay. In kind it is functional, cell-based. To be noted: HL-60, 72 h.
The target of test [5] is Phosphatidylinositol 4,5-bisphosphate 3-kinase catalytic subunit alpha isoform (Homo sapiens, UniProt P42336). In words: Inhibition of recombinant PI3Kalpha (unknown origin) using […] as substrate after 3 hrs incubation by competitive fluorescence polarization kinase activity assay. In general terms: Fluorescence polarisation rises when a labelled molecule tumbles more slowly, as on binding a larger partner.
Sequence of Phosphatidylinositol 4,5-bisphosphate 3-kinase catalytic subunit alpha isoform (P42336 whole entry, canonical isoform): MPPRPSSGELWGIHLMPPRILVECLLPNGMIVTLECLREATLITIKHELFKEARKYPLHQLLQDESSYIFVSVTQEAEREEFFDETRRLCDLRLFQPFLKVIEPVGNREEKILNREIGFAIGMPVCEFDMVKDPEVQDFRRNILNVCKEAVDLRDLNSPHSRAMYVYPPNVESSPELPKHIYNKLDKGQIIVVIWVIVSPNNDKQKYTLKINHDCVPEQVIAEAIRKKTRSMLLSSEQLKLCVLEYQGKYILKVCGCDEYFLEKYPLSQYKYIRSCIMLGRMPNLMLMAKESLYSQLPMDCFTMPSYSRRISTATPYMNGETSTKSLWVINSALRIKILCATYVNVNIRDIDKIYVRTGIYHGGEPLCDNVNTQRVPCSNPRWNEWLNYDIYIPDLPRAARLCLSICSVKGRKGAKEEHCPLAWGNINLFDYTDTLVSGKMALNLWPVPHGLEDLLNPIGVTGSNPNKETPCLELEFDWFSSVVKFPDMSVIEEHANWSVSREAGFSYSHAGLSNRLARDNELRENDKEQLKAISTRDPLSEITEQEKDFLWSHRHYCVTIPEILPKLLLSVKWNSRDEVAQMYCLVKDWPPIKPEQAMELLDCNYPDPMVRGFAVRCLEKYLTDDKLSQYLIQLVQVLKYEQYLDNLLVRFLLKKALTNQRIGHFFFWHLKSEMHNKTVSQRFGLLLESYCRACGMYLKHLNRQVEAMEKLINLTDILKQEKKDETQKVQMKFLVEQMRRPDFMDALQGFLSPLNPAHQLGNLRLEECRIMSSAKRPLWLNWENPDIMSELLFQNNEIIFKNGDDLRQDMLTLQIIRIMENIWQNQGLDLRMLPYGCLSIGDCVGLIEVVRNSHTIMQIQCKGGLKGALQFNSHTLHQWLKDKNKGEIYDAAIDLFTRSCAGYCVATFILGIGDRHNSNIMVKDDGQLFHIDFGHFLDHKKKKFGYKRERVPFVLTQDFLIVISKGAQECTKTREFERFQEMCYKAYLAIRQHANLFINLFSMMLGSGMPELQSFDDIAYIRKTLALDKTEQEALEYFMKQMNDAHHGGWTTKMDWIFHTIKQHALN

The target in test [6] is Phosphatidylinositol 4,5-bisphosphate 3-kinase catalytic subunit beta isoform (Homo sapiens, UniProt P42338). The experiment in a line: Inhibition of recombinant PI3Kbeta (unknown origin) […] after 3 hrs incubation by competitive fluorescence polarization kinase activity assay.
Sequence of Phosphatidylinositol 4,5-bisphosphate 3-kinase catalytic subunit beta isoform (P42338 whole entry, canonical isoform): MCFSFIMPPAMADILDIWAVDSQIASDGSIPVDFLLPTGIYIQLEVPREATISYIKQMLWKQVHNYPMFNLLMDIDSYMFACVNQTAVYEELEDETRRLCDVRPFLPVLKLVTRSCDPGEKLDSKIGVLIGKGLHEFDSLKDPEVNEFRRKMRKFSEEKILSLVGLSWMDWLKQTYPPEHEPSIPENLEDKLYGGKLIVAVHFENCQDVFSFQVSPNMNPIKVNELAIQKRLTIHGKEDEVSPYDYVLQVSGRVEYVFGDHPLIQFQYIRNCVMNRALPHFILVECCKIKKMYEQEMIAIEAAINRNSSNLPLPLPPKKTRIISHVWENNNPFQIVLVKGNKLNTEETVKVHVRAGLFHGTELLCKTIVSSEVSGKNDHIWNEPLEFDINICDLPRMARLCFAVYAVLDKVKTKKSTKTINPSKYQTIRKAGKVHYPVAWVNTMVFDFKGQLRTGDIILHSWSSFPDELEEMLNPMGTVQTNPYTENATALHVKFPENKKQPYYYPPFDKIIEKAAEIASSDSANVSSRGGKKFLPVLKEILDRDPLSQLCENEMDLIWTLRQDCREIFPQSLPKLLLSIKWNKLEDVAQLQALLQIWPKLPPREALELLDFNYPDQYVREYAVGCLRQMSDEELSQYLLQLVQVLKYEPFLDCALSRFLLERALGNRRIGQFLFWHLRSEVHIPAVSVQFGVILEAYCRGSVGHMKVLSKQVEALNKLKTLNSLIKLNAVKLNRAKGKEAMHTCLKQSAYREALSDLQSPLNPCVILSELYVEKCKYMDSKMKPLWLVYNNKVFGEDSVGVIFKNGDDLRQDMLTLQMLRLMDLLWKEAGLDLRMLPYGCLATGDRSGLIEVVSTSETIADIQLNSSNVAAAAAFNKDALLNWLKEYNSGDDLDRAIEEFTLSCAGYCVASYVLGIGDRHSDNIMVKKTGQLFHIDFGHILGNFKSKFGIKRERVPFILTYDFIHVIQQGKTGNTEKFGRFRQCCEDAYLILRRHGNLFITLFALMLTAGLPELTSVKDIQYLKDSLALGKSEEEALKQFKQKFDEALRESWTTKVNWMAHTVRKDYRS
In test [7] the target is Phosphatidylinositol 4,5-bisphosphate 3-kinase catalytic subunit gamma isoform (Homo sapiens, UniProt P48736). The experiment in a line: Inhibition of recombinant PI3Kgamma (unknown origin) using […] as substrate after 3 hrs incubation by competitive fluorescence polarization kinase activity assay.
Sequence of Phosphatidylinositol 4,5-bisphosphate 3-kinase catalytic subunit gamma isoform (P48736 whole entry, canonical isoform): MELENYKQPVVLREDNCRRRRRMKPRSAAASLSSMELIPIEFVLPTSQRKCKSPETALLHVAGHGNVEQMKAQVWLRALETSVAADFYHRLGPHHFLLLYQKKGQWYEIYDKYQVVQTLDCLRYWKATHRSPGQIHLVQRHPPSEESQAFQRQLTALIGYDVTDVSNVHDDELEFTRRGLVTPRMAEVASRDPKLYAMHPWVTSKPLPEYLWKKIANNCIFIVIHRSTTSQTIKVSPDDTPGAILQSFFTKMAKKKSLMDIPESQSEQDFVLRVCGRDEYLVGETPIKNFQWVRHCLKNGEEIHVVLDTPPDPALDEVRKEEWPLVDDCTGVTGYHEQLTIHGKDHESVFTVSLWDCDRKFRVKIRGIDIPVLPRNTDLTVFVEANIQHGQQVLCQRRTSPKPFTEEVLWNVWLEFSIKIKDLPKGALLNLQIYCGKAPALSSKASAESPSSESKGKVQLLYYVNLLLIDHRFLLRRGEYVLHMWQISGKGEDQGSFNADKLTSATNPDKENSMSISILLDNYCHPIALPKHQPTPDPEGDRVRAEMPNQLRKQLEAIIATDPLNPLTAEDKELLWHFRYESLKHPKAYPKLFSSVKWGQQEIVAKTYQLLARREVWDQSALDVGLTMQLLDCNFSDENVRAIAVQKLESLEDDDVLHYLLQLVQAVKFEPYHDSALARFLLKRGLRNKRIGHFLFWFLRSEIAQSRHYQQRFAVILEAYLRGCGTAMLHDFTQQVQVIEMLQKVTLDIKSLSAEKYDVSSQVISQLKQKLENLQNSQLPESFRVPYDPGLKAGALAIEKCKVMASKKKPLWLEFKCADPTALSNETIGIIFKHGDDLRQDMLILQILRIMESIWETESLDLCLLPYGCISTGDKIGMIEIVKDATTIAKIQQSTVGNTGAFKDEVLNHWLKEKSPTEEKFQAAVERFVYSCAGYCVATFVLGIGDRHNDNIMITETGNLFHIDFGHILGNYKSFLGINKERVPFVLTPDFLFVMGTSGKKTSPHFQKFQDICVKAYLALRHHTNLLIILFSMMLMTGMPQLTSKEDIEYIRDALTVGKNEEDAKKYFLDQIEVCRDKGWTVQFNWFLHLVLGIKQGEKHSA
Test [8] has as its target T1, Phosphatidylinositol 4,5-bisphosphate 3-kinase catalytic subunit delta isoform (Homo sapiens, UniProt O00329).
T1 sequence (O00329 whole entry): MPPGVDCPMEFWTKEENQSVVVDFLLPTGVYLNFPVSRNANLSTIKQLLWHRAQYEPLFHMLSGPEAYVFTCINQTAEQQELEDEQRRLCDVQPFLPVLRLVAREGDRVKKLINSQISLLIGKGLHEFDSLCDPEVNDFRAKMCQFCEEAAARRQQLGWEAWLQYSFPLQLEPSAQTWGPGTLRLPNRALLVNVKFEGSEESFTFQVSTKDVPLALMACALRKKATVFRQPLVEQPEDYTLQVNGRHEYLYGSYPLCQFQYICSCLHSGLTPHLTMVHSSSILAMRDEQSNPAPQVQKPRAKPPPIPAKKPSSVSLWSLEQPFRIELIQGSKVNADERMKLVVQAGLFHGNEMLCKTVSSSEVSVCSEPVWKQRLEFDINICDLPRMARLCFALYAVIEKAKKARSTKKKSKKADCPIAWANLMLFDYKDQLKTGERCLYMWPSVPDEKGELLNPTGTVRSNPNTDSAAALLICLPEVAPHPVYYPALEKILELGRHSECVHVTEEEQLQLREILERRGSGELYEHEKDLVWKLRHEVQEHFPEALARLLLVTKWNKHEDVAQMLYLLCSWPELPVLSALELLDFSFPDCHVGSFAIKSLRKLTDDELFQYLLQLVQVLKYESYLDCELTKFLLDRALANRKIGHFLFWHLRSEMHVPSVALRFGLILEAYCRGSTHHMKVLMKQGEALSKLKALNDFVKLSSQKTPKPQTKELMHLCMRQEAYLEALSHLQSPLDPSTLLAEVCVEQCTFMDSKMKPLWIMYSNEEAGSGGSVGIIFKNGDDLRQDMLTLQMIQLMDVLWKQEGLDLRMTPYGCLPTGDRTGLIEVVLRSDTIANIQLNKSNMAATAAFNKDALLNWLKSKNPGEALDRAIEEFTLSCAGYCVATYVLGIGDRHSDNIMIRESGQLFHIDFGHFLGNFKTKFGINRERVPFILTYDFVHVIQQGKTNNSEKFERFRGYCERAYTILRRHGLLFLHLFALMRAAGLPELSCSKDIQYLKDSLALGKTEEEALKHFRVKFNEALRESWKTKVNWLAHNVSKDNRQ
The experiment in a line: Inhibition of recombinant PI3Kdelta (unknown origin) using […] as substrate after 3 hrs incubation by competitive fluorescence polarization kinase activity assay.

A value given as a limit tells only on which side of the number the result lay.

For the compound `Cc1ccc2c(c1)-c1nc3cc(Cl)ccc3n1CCO2`, the concentration for half-maximal inhibition (IC50) in test [1] amounted to 46.4 µM; in test [2], 55.6 µM; in test [3], 64.5 µM; in test [4] it was 51.6 µM.

For `Brc1ccc2c(c1)nc1n2CCOc2ccccc2-1`, the half-maximal inhibitory concentration (IC50) in test [1] is 43.9 µM; in test [2] it was 49.5 µM; in test [3] it was 58.5 µM; in test [4], 44.3 µM.

Take `Cc1ccc2c(c1)-c1nc3cc(C(F)(F)F)ccc3n1CCO2`: the half-maximal inhibitory concentration (IC50) stood at 4.45 µM in test [1]; 4.95 µM in test [2]; 6.47 µM in test [3]; 4.86 µM in test [4]; 0.685 µM in test [5]; 1.21 µM in test [6]. The 50% inhibitory concentration (IC50) in test [7] was 41.6 µM; in test [8] it was above 50 µM.

Consider `Cc1ccc2c(c1)-c1nc3cc(F)ccc3n1CCO2`, for which the half-maximal inhibitory concentration (IC50) worked out at 2.46 µM in test [1]; 2.85 µM in test [2]; 3.86 µM in test [3]; 4.56 µM in test [4]; 0.474 µM in test [5]; 0.907 µM in test [6]. Also, the half-maximal inhibitory concentration (IC50) in test [7] is 34.6 µM; in test [8] it was above 50 µM.

`Brc1ccc2c(c1)-c1nc3ccccc3n1CCO2`: the IC50 in test [1] came to 98.5 µM; in test [2], 128 µM; in test [3], 132 µM; in test [4], 103 µM.

In the case of `c1ccc2c(c1)OCCn1c-2nc2ccccc21`, the half-inhibitory concentration (IC50) in test [1] was 101 µM; in test [2], 133 µM; in test [3], 124 µM; in test [4], 108 µM.

In the case of `Clc1ccc2c(c1)nc1n2CCOc2ccc(Br)cc2-1`, the IC50 in test [1] is 0.12 µM; in test [2], 0.17 µM; in test [3], 0.18 µM; in test [4] it was 0.15 µM; in test [5], 0.031 µM; in test [6] it was 0.188 µM. Moreover, the values for the IC50 in test [7] and in test [8] were 11.8 µM and above 50 µM, respectively.

Regarding `Brc1ccc2c(c1)-c1nc3cc(Br)ccc3n1CCO2`, the half-inhibitory concentration (IC50) in test [1] is 0.47 µM; in test [2] it was 0.48 µM; in test [3], 0.51 µM; in test [4] it was 0.47 µM; in test [5], 0.092 µM; in test [6], 0.284 µM. For the same compound, the concentration for half-maximal inhibition (IC50) was 19.5 µM in test [7] and 39.8 µM in test [8].

Turning to `Cc1ccc2c(c1)-c1nc3cc(C)ccc3n1CCO2`, the half-inhibitory concentration (IC50) in test [1] was 0.59 µM; in test [2], 0.61 µM; in test [3] it was 0.67 µM; in test [4], 0.58 µM; in test [5] it was 0.118 µM; in test [6] it was 0.394 µM. For the same compound, the IC50 in test [7] is 17.1 µM; in test [8], above 50 µM.

`O=[N+]([O-])c1ccc2c(c1)nc1n2CCOc2ccc(Cl)cc2-1`: the IC50 was 28.4 µM in test [1], 28.3 µM in test [2], 20.1 µM in test [3] and 32.9 µM in test [4].

As for `O=c1cc(N2CCOCC2)oc2c(-c3ccccc3)cccc12` [LY-294002], the IC50 in test [1] stood at 51.8 µM; in test [2], 82.3 µM; in test [3] it was 67.2 µM; in test [8], 1.36 µM.

For the compound `Cc1ccc2c(c1)-c1nc3cc(Br)ccc3n1CCO2`, the IC50 in test [1] amounted to 7.38 µM; in test [2] it was 7.88 µM; in test [3], 4.91 µM; in test [4], 7.68 µM; in test [5], 0.662 µM; in test [6], 1.03 µM. The IC50 was 44.1 µM in test [7] and 47.8 µM in test [8].

Consider `Cc1ccc2c(c1)nc1n2CCOc2ccccc2-1`, for which the concentration for half-maximal inhibition (IC50) amounted to 73.5 µM in test [1], 83.7 µM in test [2], 82.6 µM in test [3] and 75.2 µM in test [4].

For `Cc1ccc2c(c1)nc1n2CCOc2ccc(Br)cc2-1`, the IC50 in test [1] is 80.1 µM; in test [2] it was 92.8 µM; in test [3], 97.4 µM; in test [4], 88.6 µM.

`FC(F)(F)c1ccc2c(c1)nc1n2CCOc2ccc(Cl)cc2-1`: the IC50 in test [1] was 34.7 µM; in test [2], 38.3 µM; in test [3], 42.3 µM; in test [4], 38 µM.

On to `Clc1ccc2c(c1)nc1n2CCOc2ccccc2-1`, for which the 50% inhibitory concentration (IC50) in test [1] amounted to 71.5 µM; in test [2], 77.3 µM; in test [3], 80.3 µM; in test [4], 73.8 µM.

For `Fc1ccc2c(c1)nc1n2CCOc2ccc(Cl)cc2-1`, the half-inhibitory concentration (IC50) in test [1] was 1.83 µM; in test [2], 1.71 µM; in test [3], 1.35 µM; in test [4], 1.89 µM; in test [5], 0.283 µM; in test [6], 0.488 µM. The IC50 amounted to 21.7 µM in test [7] and 42.6 µM in test [8].

For the compound `Clc1ccc2c(c1)-c1nc3cc(Br)ccc3n1CCO2`, the 50% inhibitory concentration (IC50) in test [1] came out at 64.4 µM; in test [2], 74.1 µM; in test [3] it was 72.1 µM; in test [4], 66.7 µM.

Turning to `Fc1ccc2c(c1)nc1n2CCOc2ccccc2-1`, the IC50 was found to be 76.5 µM in test [1], 89.4 µM in test [2], 91.9 µM in test [3] and 82.5 µM in test [4].

As for `Cc1ccc2c(c1)nc1n2CCOc2ccc(Cl)cc2-1`, the half-maximal inhibitory concentration (IC50) was 58.2 µM in test [1], 61.6 µM in test [2], 63.4 µM in test [3] and 57.4 µM in test [4].

Turning to `FC(F)(F)c1ccc2c(c1)nc1n2CCOc2ccccc2-1`, the half-inhibitory concentration (IC50) in test [1] amounted to 13.8 µM; in test [2], 11.5 µM; in test [3] it was 18.7 µM; in test [4], 10.1 µM.

As for `Clc1ccc2c(c1)-c1nc3ccccc3n1CCO2`, the IC50 in test [1] stood at 87.7 µM; in test [2], 108 µM; in test [3], 92.5 µM; in test [4], 91.3 µM.

With `FC(F)(F)c1ccc2c(c1)nc1n2CCOc2ccc(Br)cc2-1`, the IC50 was 60.6 µM in test [1], 68.5 µM in test [2], 69.7 µM in test [3] and 66.4 µM in test [4].

In the case of `Fc1ccc2c(c1)nc1n2CCOc2ccc(Br)cc2-1`, the IC50 in test [1] stood at 0.74 µM; in test [2], 0.7 µM; in test [3], 0.74 µM; in test [4], 0.78 µM; in test [5] it was 0.181 µM; in test [6], 0.473 µM. Also, the 50% inhibitory concentration (IC50) in test [7] is 27.9 µM; in test [8], above 50 µM.

For the compound `Cc1ccc2c(c1)-c1nc3ccccc3n1CCO2`, the IC50 in test [1] was determined as 112 µM; in test [2], 148 µM; in test [3], 144 µM; in test [4] it was 122 µM.

For `Clc1ccc2c(c1)-c1nc3cc(Cl)ccc3n1CCO2`, the IC50 in test [1] came to 0.52 µM; in test [2], 0.56 µM; in test [3] it was 0.45 µM; in test [4] it was 0.53 µM; in test [5] it was 0.127 µM; in test [6], 0.363 µM. For the same compound, the half-inhibitory concentration (IC50) in test [7] was 24.3 µM; in test [8] it was above 50 µM.

On to `O=[N+]([O-])c1ccc2c(c1)nc1n2CCOc2ccccc2-1`, for which the IC50 in test [1] was 91 µM; in test [2] it was 122 µM; in test [3], 105 µM; in test [4], 94.5 µM.

On to `O=[N+]([O-])c1ccc2c(c1)nc1n2CCOc2ccc(Br)cc2-1`, for which the IC50 stood at 19 µM in test [1], 22 µM in test [2], 24.3 µM in test [3] and 17.5 µM in test [4].
